According to patent US20160199524A1, “RADIOSENSITIVITY OF FLUOROPHORES AND USE OF RADIOPROTECTIVE AGENTS FOR DUAL-MODALITY IMAGING” (Immunomedics, Inc., priority 2015, published 2016):

Experiments:
[1] = test system: nude mice bearing LS174T human colonic cancer xenografts; assay: in vivo
Protocol: (§1) Mice were necropsied at 1 and 3 h post injection, 7 mice per time point.
(§2) Biodistribution studies were performed in Taconic nude mice bearing subcutaneous LS174T tumor xenografts.
(§3) Mice were necropsied at 1 and 3 h post injection, 6 mice per time point.

[2] = Biodistribution of Al^18F(IMP485) alone or TF2 pretargeted; conditions: mouse, in vivo, iv
Protocol: as §1, §2, §3

[3] = Stability of Al^18F(IMP485)/IMP487 in human serum at 37° C.; type: in vitro ADME; conditions: four hours
Protocol: A kit containing 40 nmol of IMP485 or IMP487, 20 nmol AlCl3, 0.1 mg ascorbic acid and 0.1 g trehalose adjusted to pH 3.9 was reconstituted with purified ^18F^− in 200 μL saline and heated 106° C. for 15 min. The reaction mixture was then diluted with 800 μL water and placed on an HLB column. […] The radiolabeled peptide in […] was mixed with 250 μL of fresh human serum in a vial and incubated at 37° C.
The purified radiolabeled peptide in 50 μL 1:1 EtOH/H2O was mixed with 150 μL of human serum and placed in the HPLC autosampler heated to 37° C. and analyzed by RP-HPLC.

[4] = Taconic nude, mouse, in vivo, iv, 1 h
[5] = Taconic nude, mouse, in vivo, iv, 3 h
[6] = nude (Taconic), mouse, in vivo, iv, 3 h
[7] = nude, mouse, in vivo, iv, 28 uCi, 3 h
[8] = Taconic nude, % ID/org Lg. Int.
[9] = Taconic nude, % ID/org Sm. Int.
[10] = nude (Taconic), 28 uCi, total radioactivity, % ID/g Lung

## NC(=O)[C@@H](CCCCNC(=O)CNC(=O)CCC(=O)NCCc1c[nH]cn1)NC(=O)[C@@H](Cc1ccc(O)cc1)NC(=O)[C@@H](CCCCNC(=O)CNC(=O)CCC(=O)NCCc1c[nH]cn1)NC(=O)Cc1ccc(CN2CCN(CC(=O)O)CCN(CC(=O)O)CC2)cc1 [Al^18F(IMP485)]
[1]; [4]
  % ID/g Lg. Int.: 0.10 ± 0.03 % ID/g
  % ID/g Liver: 0.24 ± 0.04 % ID/g
  % ID/g Muscle: 0.14 ± 0.10 % ID/g
[1]; [5]
  % ID/g Blood: 0.02 ± 0.01 % ID/g
  % ID/g Lung: 0.24 ± 0.06 % ID/g
  % ID/g Muscle: 0.03 ± 0.01 % ID/g
  % ID/g Stomach: 0.03 ± 0.02 % ID/g
[1]; alone, 1 h post injection
  % ID/g Sm. Int.: 0.40 ± 0.13 % ID/g
  % ID/g Spleen: 0.21 ± 0.18 % ID/g
  % ID/g Stomach: 0.13 ± 0.11 % ID/g
  % ID/g Tumor: 0.32 ± 0.11 % ID/g
  T/NT Blood: 2.0
  T/NT Kidney: 0.1
  T/NT Lg. Int.: 3.9
  T/NT Liver: 1.8
  T/NT Lung: 1.3
  T/NT Muscle: 4.1
  T/NT Scapula: 2.9
  T/NT Sm. Int.: 0.8
  T/NT Spleen: 1.9
  T/NT Stomach: 3.5
  T/NT Tumor: 1.0
[1]; alone, 3 h post injection
  % ID/g Stomach: 0.04 ± 0.02 % ID/g
  % ID/g Tumor: 0.09 ± 0.02 % ID/g
  T/NT Blood: 21.0
  T/NT Kidney: 0.0
  T/NT Lg. Int.: 0.1
  T/NT Liver: 13.6
  T/NT Lung: 1.3
  T/NT Muscle: 203.9
  T/NT Scapula: 1.2
  T/NT Sm. Int.: 0.7
  T/NT Spleen: 1.4
  T/NT Stomach: 2.5
  T/NT Tumor: 1.0
[1]; mouse, in vivo
  T/NT Tumor: 1
[1]; nude (Taconic), mouse, in vivo, iv, 28 uCi, 1 h
  % ID/g Lg. Int.: 0.08 ± 0.02 % ID/g
[1]; nude (Taconic), mouse, in vivo, iv, 28 uCi, 3 h
  % ID/g Lung: 0.07 ± 0.02 % ID/g
[1]; [6]
  % ID/g Scapula: 0.06 ± 0.02 % ID/g
  % ID/g Spleen: 0.25 ± 0.11 % ID/g
[1]; [7]
  % ID/g Liver: 0.10 ± 0.05 % ID/g
  % ID/g Muscle: 0.01 ± 0.01 % ID/g
[1]; nude, mouse, in vivo, iv, 1 h
  % ID/g Blood: 0.28 ± 0.07 % ID/g
  % ID/g Stomach: 0.53 ± 1.18 % ID/g
[2]; Taconic nude
  tissue uptake at 3 h: 0.353 %ID/g
[2]; Taconic nude, % ID/g Blood
  tissue uptake at 3 h: 0.023 %ID/g
[2]; Taconic nude, % ID/g Kidney
  tissue uptake at 1 h: 3.19 %ID/g
[2]; Taconic nude, % ID/g Lg. Int.
  tissue uptake at 1 h: 0.104 %ID/g
  tissue uptake at 3 h: 0.35 ± 0.16 %ID/g
[2]; Taconic nude, % ID/g Liver
  tissue uptake at 1 h: 0.237 %ID/g
[2]; Taconic nude, % ID/g Lung
  tissue uptake at 3 h: 0.244 %ID/g
[2]; Taconic nude, % ID/g Muscle
  tissue uptake at 1 h: 0.136 %ID/g
  tissue uptake at 3 h: 0.025 %ID/g
[2]; Taconic nude, % ID/g Scapula
  tissue uptake at 1 h: 0.5 %ID/g
[2]; Taconic nude, % ID/g Sm. Int.
  tissue uptake at 3 h: 0.071 %ID/g
[2]; Taconic nude, % ID/g Spleen
  tissue uptake at 1 h: 0.254 %ID/g
[2]; Taconic nude, % ID/g Stomach
  tissue uptake at 3 h: 0.025 %ID/g
[2]; Taconic nude, % ID/g Tumor
  tissue uptake at 1 h: 28.1 %ID/g
[2]; Taconic nude, % ID/org Blood
  tissue uptake dose at 3 h: 0.037 %ID
[2]; Taconic nude, % ID/org Kidney
  tissue uptake dose at 1 h: 0.444 %ID
[2]; [8]
  tissue uptake dose at 1 h: 0.055 %ID
  tissue uptake dose at 3 h: 0.206 %ID
[2]; Taconic nude, % ID/org Liver
  tissue uptake dose at 1 h: 0.295 %ID
[2]; Taconic nude, % ID/org Lung
  tissue uptake dose at 3 h: 0.035 %ID
[2]; Taconic nude, % ID/org Muscle
  tissue uptake dose at 1 h: 0.012 %ID
  tissue uptake dose at 3 h: 0.002 %ID
[2]; Taconic nude, % ID/org Scapula
  tissue uptake dose at 1 h: 0.095 %ID
[2]; [9]
  tissue uptake dose at 1 h: 0.586 %ID
  tissue uptake dose at 3 h: 0.059 %ID
[2]; Taconic nude, % ID/org Spleen
  tissue uptake dose at 1 h: 0.02 %ID
[2]; Taconic nude, % ID/org Stomach
  tissue uptake dose at 3 h: 0.01 %ID
[2]; Taconic nude, % ID/org Tumor
  tissue uptake dose at 1 h: 8.03 %ID
[2]; nude (Taconic), 28 uCi, total radioactivity
  tissue uptake at 1 h: 0.114 %ID/g
[2]; nude (Taconic), 28 uCi, total radioactivity, % ID/g Blood
  tissue uptake at 1 h: 0.165 %ID/g
[2]; nude (Taconic), 28 uCi, total radioactivity, % ID/g Lg. Int.
  tissue uptake at 1 h: 0.081 %ID/g
[2]; nude (Taconic), 28 uCi, total radioactivity, % ID/g Liver
  tissue uptake at 1 h: 0.176 %ID/g
[2]; [10]
  tissue uptake at 1 h: 0.238 %ID/g
  tissue uptake at 3 h: 0.073 %ID/g
[2]; nude (Taconic), 28 uCi, total radioactivity, % ID/g Scapula, alone, 1 h post injection
  tissue uptake at 1 h: 0.107 %ID/g
[2]; nude (Taconic), 28 uCi, total radioactivity, % ID/g Sm. Int., alone, 1 h post injection
  tissue uptake at 1 h: 0.396 %ID/g
[2]; nude (Taconic), 28 uCi, total radioactivity, % ID/g Spleen, alone, 1 h post injection
  tissue uptake at 1 h: 0.21 %ID/g
[2]; nude (Taconic), 28 uCi, total radioactivity, % ID/g Stomach, alone, 1 h post injection
  tissue uptake at 1 h: 0.126 %ID/g
[2]; nude (Taconic), 28 uCi, total radioactivity, % ID/g Tumor, alone, 1 h post injection
  tissue uptake at 1 h: 0.316 %ID/g
[2]; nude (Taconic), 28 uCi, total radioactivity, % ID/org Blood, alone, 1 h post injection
  tissue uptake dose at 1 h: 0.268 %ID
[2]; nude (Taconic), 28 uCi, total radioactivity, % ID/org Kidney, alone, 1 h post injection
  tissue uptake dose at 1 h: 0.499 %ID
[2]; nude (Taconic), 28 uCi, total radioactivity, % ID/org Lg. Int., alone, 1 h post injection
  tissue uptake dose at 1 h: 0.041 %ID
[2]; nude (Taconic), 28 uCi, total radioactivity, % ID/org Liver, alone, 1 h post injection
  tissue uptake dose at 1 h: 0.22 %ID
[2]; nude (Taconic), 28 uCi, total radioactivity, % ID/org Lung, alone, 1 h post injection
  tissue uptake dose at 1 h: 0.033 %ID
[2]; nude (Taconic), 28 uCi, total radioactivity, % ID/org Scapula, alone, 1 h post injection
  tissue uptake dose at 1 h: 0.006 %ID
[2]; nude (Taconic), 28 uCi, total radioactivity, % ID/org Sm. Int., alone, 1 h post injection
  tissue uptake dose at 1 h: 0.353 %ID
[2]; nude (Taconic), 28 uCi, total radioactivity, % ID/org Spleen, alone, 1 h post injection
  tissue uptake dose at 1 h: 0.018 %ID
[2]; nude (Taconic), 28 uCi, total radioactivity, % ID/org Stomach, alone, 1 h post injection
  tissue uptake dose at 1 h: 0.057 %ID
[2]; nude (Taconic), 28 uCi, total radioactivity, % ID/org Tumor, alone, 1 h post injection
  tissue uptake dose at 1 h: 0.081 %ID
[2]; nude (Taconic), total radioactivity, % ID/g Kidney
  tissue uptake at 3 h: 2.22 %ID/g
[2]; nude (Taconic), total radioactivity, % ID/g Liver
  tissue uptake at 3 h: 0.142 %ID/g
[2]; nude (Taconic), total radioactivity, % ID/g Scapula
  tissue uptake at 3 h: 0.058 %ID/g
[2]; nude (Taconic), total radioactivity, % ID/g Spleen
  tissue uptake at 3 h: 0.138 %ID/g
[2]; nude (Taconic), total radioactivity, % ID/org Kidney
  tissue uptake dose at 3 h: 0.319 %ID
[2]; nude (Taconic), total radioactivity, % ID/org Liver
  tissue uptake dose at 3 h: 0.178 %ID
[2]; nude (Taconic), total radioactivity, % ID/org Scapula
  tissue uptake dose at 3 h: 0.008 %ID
[2]; nude (Taconic), total radioactivity, % ID/org Spleen
  tissue uptake dose at 3 h: 0.011 %ID
[2]; nude (Taconic), total radioactivity, % ID/org Tumor
  tissue uptake dose at 3 h: 8.13 %ID
[2]; nude, 28 uCi, total radioactivity, % ID/g Lg. Int.
  tissue uptake at 3 h: 0.713 %ID/g
[2]; nude, 28 uCi, total radioactivity, % ID/g Liver
  tissue uptake at 3 h: 0.095 %ID/g
[2]; nude, 28 uCi, total radioactivity, % ID/g Muscle
  tissue uptake at 3 h: 0.013 %ID/g
[2]; nude, 28 uCi, total radioactivity, % ID/g Sm. Int., alone, 3 h post injection
  tissue uptake at 3 h: 0.137 %ID/g
[2]; nude, 28 uCi, total radioactivity, % ID/g Spleen, alone, 3 h post injection
  tissue uptake at 3 h: 0.065 %ID/g
[2]; nude, 28 uCi, total radioactivity, % ID/g Stomach, alone, 3 h post injection
  tissue uptake at 3 h: 0.041 %ID/g
[2]; nude, 28 uCi, total radioactivity, % ID/g Tumor, alone, 3 h post injection
  tissue uptake at 3 h: 0.088 %ID/g
[2]; nude, 28 uCi, total radioactivity, % ID/org Blood, alone, 3 h post injection
  tissue uptake dose at 3 h: 0.013 %ID
[2]; nude, 28 uCi, total radioactivity, % ID/org Kidney, alone, 3 h post injection
  tissue uptake dose at 3 h: 0.345 %ID
[2]; nude, 28 uCi, total radioactivity, % ID/org Lg. Int., alone, 3 h post injection
  tissue uptake dose at 3 h: 0.408 %ID
[2]; nude, 28 uCi, total radioactivity, % ID/org Liver, alone, 3 h post injection
  tissue uptake dose at 3 h: 0.114 %ID
[2]; nude, 28 uCi, total radioactivity, % ID/org Scapula, alone, 3 h post injection
  tissue uptake dose at 3 h: 0.006 %ID
[2]; nude, 28 uCi, total radioactivity, % ID/org Sm. Int., alone, 3 h post injection
  tissue uptake dose at 3 h: 0.119 %ID
[2]; nude, 28 uCi, total radioactivity, % ID/org Spleen, alone, 3 h post injection
  tissue uptake dose at 3 h: 0.006 %ID
[2]; nude, 28 uCi, total radioactivity, % ID/org Stomach, alone, 3 h post injection
  tissue uptake dose at 3 h: 0.016 %ID
[2]; nude, 28 uCi, total radioactivity, % ID/org Tumor, alone, 3 h post injection
  tissue uptake dose at 3 h: 0.022 %ID
[2]; nude, total radioactivity, % ID/g Blood
  tissue uptake at 1 h: 0.278 %ID/g
[2]; nude, total radioactivity, % ID/g Lung
  tissue uptake at 1 h: 0.535 %ID/g
[2]; nude, total radioactivity, % ID/g Sm. Int.
  tissue uptake at 1 h: 0.686 %ID/g
[2]; nude, total radioactivity, % ID/g Stomach
  tissue uptake at 1 h: 0.534 %ID/g
[2]; nude, total radioactivity, % ID/org Blood
  tissue uptake dose at 1 h: 0.456 %ID
[2]; nude, total radioactivity, % ID/org Lung
  tissue uptake dose at 1 h: 0.075 %ID
[2]; nude, total radioactivity, % ID/org Stomach
  tissue uptake dose at 1 h: 0.265 %ID
[3]
  stability in human serum: stable
